# US20070261950A1, “IONIZED WATER AND METHOD OF PRODUCING SAME” (priority 2006, published 2007)
# Legend:
# RAW264.7 cells [1] = test: IL-1β production by peptidoglycan-stimulated RAW264.7 cells (ELISA); format: cell-based, mouse; conditions: peptidoglycan 5 μg/ml, 24 hours; 25% NIW, 75% DIW; DH-DIW; NaClO 100 ppm
# Method: Next, the effects of NIW generated from 0.12% NaCl solution or water containing DH (dissolved hydrogen) on proinflammatory cytokine, IL-1β, production by the RAW264.7 cells in vitro was studied. Briefly, mouse RAW264.7 cells in 96-well tissue culture plates were stimulated with 5 μg/ml of peptidoglycan (Staphylococcus aureus origin, from Sigma) in NIW-based complete medium of α-MEM (25% NIW, 75% DIW) or DIW-based α-MEM (100% DIW). Hydrogen was dissolved in DIW for two days (DH-DIW) or NaClO (100 ppm) was additionally added to DIW. All media used in this assay were supplemented with FBS (10%). After 24 hours of incubation, culture supernatants were collected from the 96-well plates and diluted in an equal volume of PBS containing 0.05% Tween 20 detergent (PBST). A commercially available ELISA kit for IL-1β was employed to measure the concentration of IL-1β in the culture supernatants.
# RAW264.7 cells [2] = test: Intracellular ROS induced by LPS in RAW264.7 cells (C400 fluorescence, confocal microscopy); format: cell-based, mouse; conditions: 24 hours
# Method: More specifically, RAW264.7 cells were incubated in 10% FBS containing α-MEM dissolved in a) 0.12% NaCl, b) 0.12% NaCl+85 ppm NaClO, or c) NIW. The cells were incubated in the presence or absence of E. coli LPS (1 μg/ml) for 24 hours. The cells were stained with Fluorescein-derivative ROS reacting reagent, 5-(and 6)-carboxy-2′,7′-dichlorodihydrofluorescein diacetate (#C400, Molecular Probes). The C400 only reacts with ROS and develops fluorescence emission at a wavelength range of 517-527 nm. The staining pattern was analyzed by 0.3 μm sequential optical sectioning at ×400 or ×1000 magnification with a Leica™ TCS/SP-2 laser scan confocal microscope.
compound,measurement,setting,value
"OCl [sodium hypochlorite (NaClO) water, sodium hypochlorite]",IL-1β production,RAW264.7 cells [1],augmented the mitogenic activity of the peptidoglycan
same,LPS-dependent intracellular ROS induction,RAW264.7 cells [2]; E. coli LPS 1 μg/ml,LPS treatment induced intracellular ROS
same,intracellular ROS in the absence of LPS,RAW264.7 cells [2]; no LPS,did not show intracellular ROS
